The subject of data set [1] is PC12 cells. Put plainly: cells. Conditions: Rattus norvegicus, PC-12, read-out: IC50 (50% inhibitory concentration) for dopamine toxicity to neurites.
The subject of data set [2] is PC12 cells. The settings on record: 3 hours, 8 wells.
The test system of data set [3] is glioblastoma cell line (SNB-19). Put plainly: High-content screen of drug-induced apoptosis, SNB-19 cells. It is filed as cell-based. The settings on record: 26 h. How it is done: Cell preparation. The cells chosen for this study were mouse connective tissue fibroblasts (L-929; ATCC CCL-1) and a highly invasive glioblastoma cell line (SNB-19; ATCC CRL-2219) (Welch et al., In Vitro Cell. Dev. Biol. 31:610, 1995). The day before treatment with an apoptosis inducing drug, 3500 cells were placed into each well of a 96-well plate and incubated overnight at 37° C. in a humidified 5% CO2 atmosphere. The following day, the culture medium was removed from each well and replaced with fresh medium containing various concentrations of paclitaxel (0–50 μM) from a 20 mM stock made in DMSO. The maximal concentration of DMSO used in these experiments was 0.25%. The cells were then incubated for 26 h as above. […]
(§1) Image acquisition and analysis on the ArrayScan System. The fluorescence intensity of intracellular MITOTRACKER® Red, Hoechst 33342, and BODIPY® FL phallacidin was measured with the cell screening system as described supra. […]
Calculations and output. A total of 50–250 cells were measured per image field. For each field of cells, the following calculations were performed: (1) The average nuclear area (μm^2) was calculated by dividing the total nuclear area in a field by the number of nuclei detected. (2) The average nuclear perimeter (μm) was calculated by dividing the sum of the perimeters of all nuclei in a field by the number of nuclei detected in that field. […]

The subject of data set [4] is mouse connective tissue fibroblasts (L-929). The experiment in a line: High-content screen of drug-induced apoptosis, L-929 cells. The class given is cell-based. How it is done:
Cell preparation. The cells chosen for this study were mouse connective tissue fibroblasts (L-929; ATCC CCL-1) and a highly invasive glioblastoma cell line (SNB-19; ATCC CRL-2219) (Welch et al., In Vitro Cell. Dev. Biol. 31:610, 1995). The day before treatment with an apoptosis inducing drug, 3500 cells were placed into each well of a 96-well plate and incubated overnight at 37° C. in a humidified 5% CO2 atmosphere. The following day, the culture medium was removed from each well and replaced with fresh medium containing various concentrations of paclitaxel (0–50 μM) from a 20 mM stock made in DMSO. The maximal concentration of DMSO used in these experiments was 0.25%. The cells were then incubated for 26 h as above. At the end of the paclitaxel treatment period, each well received fresh medium containing 750 nM MITOTRACKER® Red (Molecular Probes; Eugene, Oreg.) and 3 μg/ml Hoechst 33342 DNA-binding dye (Molecular Probes) and was incubated as above for 20 min. Each well on the plate was then washed with HBSS and fixed with 3.7% formaldehyde in HBSS for 15 min at room temperature. The formaldehyde was washed out with HBSS and the cells were permeabilized for 90 s with 0.5% (v/v) Triton X-100, washed with HBSS, incubated with 2 U ml^−1 BODIPY® FL phallacidin (Molecular Probes) for 30 min, and washed with HBSS. The wells on the plate were then filled with 200 μl HBSS, sealed, and the plate stored at 4° C. if Go necessary.
as §1
Calculations and output. A total of 50–250 cells were measured per image field. For each field of cells, the following calculations were performed: (1) The average nuclear area (μm^2) was calculated by dividing the total nuclear area in a field by the number of nuclei detected. (2) The average nuclear perimeter (μm) was calculated by dividing the sum of the perimeters of all nuclei in a field by the number of nuclei detected in that field. […] (3) The average nuclear brightness was calculated by dividing the integrated intensity of the entire field of nuclei by the number of nuclei in that field. […] (4) The average cellular brightness was calculated by dividing the integrated intensity of an entire field of cells stained with MITOTRACKER® dye by the number of nuclei in that field. […] (5) The average cellular brightness was also calculated by dividing the integrated intensity of an entire field of cells stained with BODIPY® FL phallacidin dye by the number of nuclei in that field. […]

Data set [5] deals with NF-KB transcription factor. Put plainly: NF-KB cytoplasm to nucleus translocation screen (NucCyt Difference). Conditions: human cell line, wells titrated with IL-1; FIG. 16. The class given is cell-based. Here is the method: The distribution of the transcription factor is determined by labeling the nuclei with a DNA specific fluorophore like […] and the transcription factor with a specific fluorescent antibody. After autofocusing on the Hoechst labeled nuclei, an image of the nuclei is acquired in the cell-based screening system and used to create a mask by one of several optional thresholding methods, as described supra. The morphological descriptors of the regions defined by the mask are compared with the user defined parameters and valid nuclear masks are identified and used with the following method to extract transcription factor distributions. Each valid nuclear mask is eroded to define a slightly smaller nuclear region. The original nuclear mask is then dilated in two steps to define a ring shaped region around the nucleus, which represents a cytoplasmic region. The average antibody fluorescence in each of these two regions is determined, and the difference between these averages is defined as the NucCyt Difference. […] Using these two sampling regions, data on nuclear translocation can be automatically analyzed by the cell-based screening system on a cell by cell basis. […]

Where two headings read alike, the source gives them in different places.

For the molecule `NCCc1ccc(O)c(O)c1` [dopamine], in the data set on PC12 cells [1], the IC50 stood at 460 µM. Moreover, the “Neurite Outgrowth Index (mean +/− standard deviation)” value in the data set with PC12 cells [2] (dopamine 0.05 mM) is reported as 43 +/− 4%; in the data set with PC12 cells [2] (dopamine 0.1 mM) it was 37 +/− 3%; with PC12 cells [2] (dopamine 0.2 mM) it was 37 +/− 3%; in the data set on PC12 cells [2] (dopamine 0.4 mM), 25 +/− 3%; in the data set on PC12 cells [2] (dopamine 0.8 mM), 17 +/− 2%; in the data set with PC12 cells [2] (dopamine 1.6 mM) it was 11 +/− 2%.
Regarding `CC(=O)O[C@H]1C(=O)[C@@]2(C)[C@H]([C@H](OC(=O)c3ccccc3)[C@]3(O)C[C@H](OC(=O)[C@H](O)[C@@H](NC(=O)c4ccccc4)c4ccccc4)C(C)=C1C3(C)C)[C@]1(OC(C)=O)CO[C@@H]1C[C@@H]2O` [paclitaxel], in data set [3], the “Concentration at which area, brightness and fragmentation of the nucleus and actin polymerization reached a maximum value” was 10 nM; the “Concentration at which mitochondrial potential was minimal” value is 10 nM. For the same molecule, in data set [4] (L-929 cells, 26 h), the “Concentration giving maximal response in many parameters” value is 5 µM. The Mitochondrial potential result in data set [4] (L-929 cells, all concentrations tested (0–50 μM)) is recorded as “did not show a sharp decrease in mitochondrial potential”. In addition, the Nuclear morphology entry in data set [4] (L-929 cells, increasing amounts, 26 h, FIG. 24) is “caused nuclei to enlarge and fragment”. The “Dose for maximal response in L-929 relative to SNB-19 cells” value in data set [4] (L-929 versus SNB-19) came out at 500 fold.

B1: IL-1: a known inducer of the NF-KB transcription factor (protein, UniProt P01583 113-271, looked up)
Interleukin-1 alpha: SAPFSFLSNVKYNFMRIIKYEFILNDALNQSIIRANDQYLTAAALHNLDEAVKFDMGAYKSSKDDAKITVILRISKTQLYVTAQDEDQPVLLKEMPEIPKTITGSETNLLFFWETHGTKNYFTSVAHPNLFIATKQDYWVCLAGGPPSITDFQILENQA
On to B1, for which, in data set [5], the “NucCyt Difference (NF-KB nuclear translocation) versus amount of agonist” value is reported as “strongly correlated with the amount of agonist added to the wells”.

(Values after patent US6986993B1, “System for cell-based screening” (Cellomics, Inc., priority 1999, dated 2006).)
